Data from EPA's ToxValDB 9.5 (doi:10.2903/j.efsa.2006.88r).
≈ marks a conversion by molar mass, not a printed value.

How the values were obtained:
[1] = acute; oral; unspecified; mortality
Daphnia magna = details: chronic/long-term; duration: 21 days; reproduction
Oryctolagus sp. = details: subchronic; oral; histopathology: nonneoplastic
Canidae = details: subchronic; oral; Dog Other; histopathology: nonneoplastic
Apis mellifera = details: acute; duration: 48 hours; oral; unspecified; mortality
Tagia sp. = details: mortality

SMILES: CSc1nnc(C(C)(C)C)c(=O)n1N [Metribuzin]
- LD50 (Bird; acute, oral, unspecified, mortality): 164 mg/kg
- NOEC (Bird; reproductive): 28.3 mg/kg-day
- LC50 (Bird; short-term, oral, feed, mortality): > 359 mg/kg-day
- LD50 [1]: 322 mg/kg
- LC50 (Oncorhynchus mykiss; acute, duration: 96 hours, mortality): 74.6 µg/mL (≈ 348 µM)
- NOEC (Oncorhynchus mykiss; chronic/long-term, duration: 95 days, growth): 4.4 mg/L
- NOEC (Daphnia magna): 0.32 mg/L
- NOAEL (Oryctolagus sp.): 2 mg/kg-day
- NOAEL (Canidae): 2 mg/kg-day
- LD50 (Apis mellifera): 166 µg/piece
- LC50 (Tagia sp.; acute, duration: 14 days): 427 mg/kg
- NOEC (Tagia sp.; chronic/long-term, duration: 8 weeks): 5250 g/ha
- NOAEL (Rattus norvegicus; acute, clinical signs): > 2 mg/kg-day
- NOAEL (Rattus norvegicus; chronic, duration: 2 years): 1.3 mg/kg-day
- NOAEL (Rattus norvegicus; reproduction developmental, body weight): 2.2 mg/kg-day
- NOAEL (Rattus norvegicus; subchronic, oral, histopathology: nonneoplastic): 2 mg/kg-day
